Data set [1] addresses T1, hDHODH (Homo sapiens, UniProt Q02127).
T1 construct: The plasmid pET-19b–hDHODH (Met30-Arg396) was transformed; inferred from the pET-19b vector and from purification on a chelating column with imidazole elution) (N); made in house; host or cells: E. coli BL21 (DE3)
Put plainly: hDHODH enzyme inhibition assay (DCIP/UQ0, dihydroorotate-initiated).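 On all read-outs here: recombinant hDHODH (Met30–Arg396) in HEPES pH 8.0 buffer with KCl and Triton X-100, reaction started by 500 µM dihydroorotate, inhibition from rate with inhibitor relative to uninhibited rate.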 The class given is biochemical. The note with it: for inhibition at 10 µM: compound at 10 µM, 10 nM purified hDHODH; for IC50: three independent tests, determined if inhibition at 10 μM was greater than 50%.
Experimental: The purified hDHODH was diluted into a final concentration of 10 nM with the assay buffer contained 50 mM HEPES pH 8.0, 150 mM KCl, 0.1% Triton X-100. […] The dihydroorotate was added to a final concentration of 500 μM to initiate the reaction. […] Inhibition rate was calculated from (1-Vi/V0) × 100. For the determination of the IC50 values, eight to nine different concentrations were applied. Each inhibitor concentration point was tested in triplicate. IC50 values were calculated using the sigmoidal fitting option of the program Origin 8.0.

T1 sequence (Q02127 29-395 limits assumed): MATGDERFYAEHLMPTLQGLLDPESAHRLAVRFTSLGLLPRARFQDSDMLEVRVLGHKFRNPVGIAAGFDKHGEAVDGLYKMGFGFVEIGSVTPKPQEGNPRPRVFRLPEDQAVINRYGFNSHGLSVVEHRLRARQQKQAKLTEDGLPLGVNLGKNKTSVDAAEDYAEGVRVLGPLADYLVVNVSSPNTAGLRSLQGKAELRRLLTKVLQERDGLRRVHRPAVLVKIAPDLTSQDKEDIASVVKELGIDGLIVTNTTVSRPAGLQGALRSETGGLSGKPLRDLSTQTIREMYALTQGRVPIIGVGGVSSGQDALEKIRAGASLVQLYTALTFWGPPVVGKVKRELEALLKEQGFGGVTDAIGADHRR

On to `COC(=O)/C(C#N)=C1\SCC(=O)N1c1ccc(-c2cccc(C(F)(F)F)c2)cc1F` [Compound 18, Methyl (Z)-2-cyano-2-(3-(3-fluoro-3’-(trifluoromethyl)-[1,1’-biphenyl]-4-yl)-4-oxothiazolidin-2-ylidene) -acetate], for which, in data set [1], the inhibition at 10 µM was determined as 53.1% and 9.29 µM corresponded to half-maximal inhibition (IC50).

As for `COC(=O)/C(C#N)=C1\SCC(=O)N1c1ccc(C(C)(C)C)cc1` [Compound 7], in data set [1], testing at 10 µM gave an inhibition of 79.1% and the 50% inhibitory concentration (IC50) was 1.75 µM.

For `COC(=O)/C(C#N)=C1\SCC(=O)N1c1ccc(C(=O)Nc2ccc(I)cc2)cc1` [Compound 34, Methyl (Z)-2-cyano-2-(3-(4-((4-iodophenyl)carbamoyl)phenyl)-4-oxothiazolidin-2-ylidene)acetate], the melting point was 315.8 to 316.6 °C. Moreover, in data set [1], testing at 10 µM gave an inhibition of 38.1% and the 50% inhibitory concentration (IC50) is > 10 µM.

As for `COC(=O)/C(C#N)=C1\SCC(=O)N1c1cccc(Oc2ccccc2)c1` [Compound 23, Methyl (Z)-2-cyano-2-(4-oxo-3-(3-phenoxyphenyl)thiazolidin-2-ylidene)acetate], the melting point lay in the range of 183.4 to 184.3 °C. For the same molecule, in data set [1], the “hDHODH inhibitory activity in words” value is “inactive”, testing at 10 µM gave an inhibition of 34.4% and the IC50 was > 10 µM.

For the molecule `COC(=O)/C(C#N)=C1\SCC(=O)N1c1ccc(-c2ccccc2C)cc1F` [Compound 12, Methyl (Z)-2-cyano-2-(3-(3-fluoro-2’-methyl-[1,1’-biphenyl]-4-yl)-4-oxothiazolidin-2-ylidene)acetate], in data set [1], the inhibition at 10 µM worked out at 57.6% and the IC50 stood at 6.04 µM.

Consider `COC(=O)/C(C#N)=C1\SCC(=O)N1c1ccc(C(=O)NC2CCCCC2)cc1` [Compound 27, Methyl (Z)-2-cyano-2-(3-(4-(cyclohexylcarbamoyl)phenyl)-4-oxothiazolidin-2-ylidene)acetate], for which, in data set [1], the inhibition at 10 µM was found to be 41.7% and the half-inhibitory concentration (IC50) is > 10 µM.

In data set [1], `COC(=O)/C(C#N)=C1\SCC(=O)N1c1ccc(-c2ccccc2)cc1F` [Compound 10, Methyl (Z)-2-cyano-2-(3-(3-fluoro-[1,1’-biphenyl]-4-yl)-4-oxothiazolidin-2-ylidene)acetate] registered an inhibition at 10 µM of 58.8% and a 50% inhibitory concentration (IC50) of 3.52 µM.

For `COC(=O)/C(C#N)=C1\SCC(=O)N1c1ccc(C(=O)Nc2cccc(C(=O)O)c2)cc1` [Compound 41, (Z)-3-(4-(2-(1-Cyano-2-methoxy-2-oxoethylidene)-4-oxothiazolidin-3-yl)benzamido)benzoic acid], the melting point is 205.7 to 206.6 °C. Further, in data set [1], the inhibition at 10 µM was 23.5% and the IC50 is > 10 µM.

In turn, `COC(=O)/C(C#N)=C1\SCC(=O)N1c1ccc(C(=O)Nc2ccc(F)cc2)cc1` [Compound 30, Methyl (Z)-2-cyano-2-(3-(4-((4-fluorophenyl)carbamoyl)phenyl)-4-oxothiazolidin-2-ylidene)acetate] gave a melting point of 231.7 to 232.5 °C. In data set [1], this molecule gave an inhibition at 10 µM of 71.3% and a 50% inhibitory concentration (IC50) of 3.01 µM.

In data set [1], `COC(=O)/C(C#N)=C1\SCC(=O)N1c1ccc(-c2ccccc2OC)cc1F` [Compound 13, Methyl (Z)-2-cyano-2-(3-(3-fluoro-2’-methoxy-[1,1’-biphenyl]-4-yl)-4-oxothiazolidin-2-ylidene)acetate] displayed an inhibition at 10 µM of 54.7% and a 50% inhibitory concentration (IC50) of 6.64 µM.

`COC(=O)/C(C#N)=C1\SCC(=O)N1c1ccc(Oc2cccc(C(F)(F)F)c2)cc1` [Compound 21]: the melting point was 159.7 to 161.3 °C. In addition, in data set [1], the inhibition at 10 µM is 29.7% and the IC50 is > 10 µM.

`COC(=O)/C(C#N)=C1\SCC(=O)N1c1ccc(C(=O)Nc2ccc3c(C(C)=O)cccc3c2)cc1` [Compound 45, Methyl (Z)-2-(3-(4-((5-acetylnaphthalen-2-yl)carbamoyl)phenyl)-4-oxothiazolidin-2-ylidene)-2-cyanoacetate] displayed a melting point of 275 to 275.8 °C. In data set [1], the inhibition at 10 µM turned out to be 42.2% and the IC50 is > 10 µM.

`COC(=O)/C(C#N)=C1\SCC(=O)N1c1ccc(Oc2ccc(C(C)(C)C)cc2)cc1` [Compound 22, Methyl (Z)-2-(3-(4-(4-(tert-butyl)phenoxy)phenyl)-4-oxothiazolidin-2-ylidene)-2-cyanoacetate] came in with a melting point of 212.9 to 213.9 °C. In data set [1], the inhibition at 10 µM is 18.1% and the IC50 was > 10 µM.

Turning to `COC(=O)/C(C#N)=C1\SCC(=O)N1c1ccc(C(=O)Nc2ccc(C(C)(C)C)c(C(=O)O)c2)cc1` [Compound 44, (Z)-2-(tert-butyl)-5-(4-(2-(1-cyano-2-methoxy-2-oxoethylidene)-4-oxothiazolidin-3-yl)benzamido)benzoic acid], the melting point lay within 328.1 to 328.9 °C. For the same molecule, in data set [1], the inhibition at 10 µM amounted to 30.3% and the concentration for half-maximal inhibition (IC50) was > 10 µM.

For the molecule `COC(=O)/C(C#N)=C1\SCC(=O)N1c1ccc(C(=O)Nc2ccccc2)cc1` [Compound 28, Methyl (Z)-2-cyano-2-(4-oxo-3-(4-(phenylcarbamoyl)phenyl)thiazolidin-2-ylidene)acetate], the melting point lay in the range of 194.9 to 195.6 °C. In data set [1], this molecule gave an inhibition at 10 µM of 69% and an IC50 of 2.98 µM.

In data set [1], `COC(=O)/C(C#N)=C1\SCC(=O)N1c1ccc(-c2cccc(OC)c2)cc1F` [Compound 14, Methyl (Z)-2-cyano-2-(3-(3-fluoro-3’-methoxy-[1,1’-biphenyl]-4-yl)-4-oxothiazolidin-2-ylidene)acetate] registered an inhibition at 10 µM of 63.3% and a concentration for half-maximal inhibition (IC50) of 5.42 µM.

In data set [1], `COC(=O)/C(C#N)=C1\SCC(=O)N1c1ccc(-c2ccccc2)cc1` [Compound 9, Methyl (Z)-2-(3-([1,1’-biphenyl]-4-yl)-4-oxothiazolidin-2-ylidene)-2-cyanoacetate] had an inhibition at 10 µM of 73.8% and an IC50 of 1.32 µM.

Regarding `COC(=O)/C(C#N)=C1\SCC(=O)N1c1ccc(OCc2ccccc2)cc1` [Compound 24, Methyl (Z)-2-(3-(4-(benzyloxy)phenyl)-4-oxothiazolidin-2-ylidene)-2-cyanoacetate], in data set [1], testing at 10 µM gave an inhibition of 55.4% and the half-inhibitory concentration (IC50) worked out at 4.32 µM.

In data set [1], `COC(=O)/C(C#N)=C1\SCC(=O)N1c1ccc2ccccc2c1` [Compound 8] gave an inhibition at 10 µM of 80.3% and an IC50 of 1.12 µM.

Consider `COC(=O)/C(C#N)=C1\SCC(=O)N1c1ccc(Oc2ccccc2)cc1` [Compound 19, Methyl (Z)-2-cyano-2-(4-oxo-3-(4-phenoxyphenyl)thiazolidin-2-ylidene)acetate], for which, in data set [1], at 10 µM the inhibition was 52% and inhibition was half-maximal at 9.43 µM (IC50).

On to `COC(=O)/C(C#N)=C1\SCC(=O)N1c1c(F)cc(-c2ccccc2)cc1F` [Compound 11, Methyl (Z)-2-cyano-2-(3-(3,5-difluoro-[1,1’-biphenyl]-4-yl)-4-oxothiazolidin-2-ylidene)acetate], for which, in data set [1], the inhibition at 10 µM stood at 33.9% and the IC50 was > 10 µM.

As to `COC(=O)/C(C#N)=C1\SCC(=O)N1c1ccc(OCc2ccccc2C(=O)O)cc1` [Compound 25, (Z)-2-((4-(2-(1-Cyano-2-methoxy-2-oxoethylidene)-4-oxothiazolidin-3-yl)phenoxy)methyl)benzoic acid], in data set [1], the inhibition at 10 µM stood at 29.9% and the half-inhibitory concentration (IC50) is > 10 µM.
